According to patent US20240360146A1, “BRUTON'S TYROSINE KINASE AND MUTANT DEGRADER, COMPOSITION AND APPLICATION THEREOF” (HANGZHOU HEALZEN THERAPEUTICS CO., LTD., priority 2021, published 2024):

What was measured:
Format in all cases: cell-based
[1] = biological target: T1, BTK (Homo sapiens, UniProt Q06187); assay: BTK degradation activity test in Mino cells; details: 16 h incubation, Western blot or Elisa
T1 construct: endogenous in cells; host or cells: Mino cells
How it was run: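 DC50 derived by curve fitting of BTK degradation rates versus untreated control across compound concentrations. Mino cells were exposed for 16 h; BTK levels in lysates, normalised via BCA protein, measured by Western blot or ELISA.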

[2] = system: OCI-LY10 cells; assay: Inhibitory activity on OCI-LY10 cell proliferation (MTS); details: Homo sapiens, 72 h
Method: (§1) The anti-tumor efficacy of the compounds was tested by measuring their inhibitory effects on OCI-LY10 and Mino cell proliferation. OCI-LY10 and Mino cells were cultured in RPMI-1640 medium containing 10% fetal calf serum. OCI-LY10 and Mino cells were digested, inoculated in a 96-well plate at a cell concentration of 10000 cells/well, and incubated overnight at 37° C., 5% CO2. Compounds of different concentrations (1000 nM, 4-fold dilution, 8 points) were added to the 96-well plate and incubated for 72 h (LY10) or 168 h (Mino) at 37° C. and 5% CO2, and then 20 uL of MTS was added to each well. After incubation for 2 h, 25 μl of 10% SDS was added to each well to terminate the reaction. The absorbance at 490 nm and 650 nm were measured with a microplate reader. IC50 was calculated using GraphPad Prism 5.0.

[3] = system: Mino cells; assay: Inhibitory activity on Mino cell proliferation (MTS); details: Homo sapiens, 168 h incubation
Method: as §1

T1 sequence (Q06187 whole entry): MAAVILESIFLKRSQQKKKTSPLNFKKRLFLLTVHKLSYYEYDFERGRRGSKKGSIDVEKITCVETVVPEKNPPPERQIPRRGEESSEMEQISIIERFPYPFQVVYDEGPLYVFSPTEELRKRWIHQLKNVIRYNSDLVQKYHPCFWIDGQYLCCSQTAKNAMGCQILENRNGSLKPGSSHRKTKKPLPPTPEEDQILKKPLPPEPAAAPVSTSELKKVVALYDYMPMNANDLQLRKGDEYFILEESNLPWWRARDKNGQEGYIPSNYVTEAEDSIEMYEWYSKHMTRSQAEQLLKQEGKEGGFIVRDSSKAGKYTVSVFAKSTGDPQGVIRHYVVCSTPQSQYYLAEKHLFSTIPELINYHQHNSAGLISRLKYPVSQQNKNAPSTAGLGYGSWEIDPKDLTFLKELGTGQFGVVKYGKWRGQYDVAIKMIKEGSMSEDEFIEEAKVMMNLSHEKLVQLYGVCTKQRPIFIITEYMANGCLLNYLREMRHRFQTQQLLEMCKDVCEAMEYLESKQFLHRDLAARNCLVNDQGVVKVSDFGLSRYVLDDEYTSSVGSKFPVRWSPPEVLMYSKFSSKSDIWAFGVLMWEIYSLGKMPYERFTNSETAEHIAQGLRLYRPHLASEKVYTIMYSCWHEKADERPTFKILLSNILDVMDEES

DC50 [1] [nM]	IC50 [2] [nM]	SMILES	IC50 [3] [nM]
< 1	0.33	CN1CCN([C@@H]2CCCN(c3ncc(C(N)=O)c(Nc4ccc(C5CCN(CC6CCN(c7ccc8c(c7)C(=O)N(C7CCC(=O)NC7=O)C8=O)CC6)CC5)cc4)n3)C2)C1=O (stereo partly drawn) [Compound 117, 4-((4-(1-((1-(2-(2,6-dioxopiperidin-3-yl)-1,3-dioxoisoindolin-5-yl)piperidin-4-yl)methyl)piperidin-4-yl)phenyl)amino)-2-((R)-3-(3-methyl-2-oxoimidazolin-1-yl)piperidin-1-yl)pyrimidin-5-carboxamide]	3.08
< 1	0.27	CN1CCN(C2CC3CC2N(c2cnc(C(N)=O)c(Nc4ccc(C5CCN(CC6CCN(c7ccc8c(c7)C(=O)N(C7CCC(=O)NC7=O)C8=O)CC6)CC5)cc4)n2)C3)C1=O (centres unmarked) [Compound 118, 3-((4-(1-((1-(2-(2,6-dioxopiperidin-3-yl)-1,3-dioxoisoindolin-5-yl)piperidin-4-yl)methyl)piperidin-4-yl)phenyl)amino)-5-(6-(3-methyl-2-oxoimidazolin-1-yl)-2-azabicyclo[2.2.1]heptan-2-yl)pyrazin-2-carboxamide]	10.7
< 1	0.38	CN1CCN([C@@H]2CCCN(c3nnc(C(N)=O)c(Nc4ccc(N5CCC(CN6CCN(c7ccc8c(c7)C(=O)N(C7CCC(=O)NC7=O)C8=O)CC6)CC5)cc4)n3)C2)C1=O (stereo partly drawn) [Compound 119, 5-((4-(4-((4-(2-(2,6-dioxopiperidin-3-yl)-1,3-dioxoisoindolin-5-yl)piperazin-1-yl)methy 1)piperidin-1-yl)phenyl)amino)-3-((R)-3-(3-methyl-2-oxoimidazolin-1-yl)piperidin-1-yl)-1,2,4-triazin-6-carboxamide]	8.09
< 1	1.83	CN1CCN([C@@H]2CCCN(c3nnc(C(N)=O)c(Nc4ccc(N5CCC(CN6CCN(c7cc8c(cc7F)C(=O)N(C7CCC(=O)NC7=O)C8=O)CC6)CC5)cc4)n3)C2)C1=O (stereo partly drawn) [Compound 125, 5-((4-(4-((4-(2-(2,6-dioxopiperidin-3-yl)-6-fluoro-1,3-dioxoisoindolin-5-yl)piperazin-1-yl)methyl)piperidin-1-yl)phenyl)amino)-3-((R)-3-(3-methyl-2-oxoimidazolin-1-yl)piperidin-1-yl)-1,2,4-triazin-6-carboxamide]	–
< 1	–	CN1CCN([C@@H]2CCCN(c3nnc(C(N)=O)c(Nc4ccc(N5CCN(CC6CCN(c7ccc8c(C9CCC(=O)NC9=O)nn(C)c8c7)CC6)CC5)c(F)c4)n3)C2)C1=O (stereo partly drawn) [Compound 213, 5-((4-(4-((1-(3-(2,6-dioxopiperidin-3-yl)-1-methyl-1H-indazol-6-yl)piperidin-4-yl)methyl)piperazin-1-yl)-3-fluorophenyl)amino)-3-((R)-3-(3-methyl-2-oxoimidazolidin-1-yl)piperidin-1-yl)-1,2,4-triazin-6-carboxamide]	7.64
< 1	–	CN1CCN([C@@H]2CCCN(c3nnc(C(N)=O)c(Nc4ccc(N5CCN(CC6CCN(c7ccc8c(c7)n(C)c(=O)n8C7CCC(=O)NC7=O)CC6)CC5)c(F)c4)n3)C2)C1=O (stereo partly drawn) [Compound 219, 5-((4-(4-((1-(1-(2,6-dioxopiperidin-3-yl)-3-methyl-2-oxo-2,3-dihydro-H-benzo[d]imidazol-5-yl)piperidin-4-yl)methyl)piperazin-1-yl)-3-fluorophenyl)amino)-3-((R)-3-(3-methyl-2-oxoimidazolidin-1-yl)piperidin-1-yl)-1,2,4-triazin-6-carboxamide]	2.74
< 1	2.55	CN1CCN([C@@H]2CCCN(c3nnc(C(N)=O)c(Nc4ccc(N5CCN(CC6CCN(c7ccc8c9c(oc8c7)C(=O)N(C7CCC(=O)NC7=O)C9)CC6)CC5)c(F)c4)n3)C2)C1=O (stereo partly drawn) [Compound 223, 5-((4-(4-((1-(2-(2,6-dioxopiperidin-3-yl)-3-oxo-2,3-dihydro-H-benzofuro[2,3-c]pyrrol-6-yl)piperidin-4-yl)methyl)piperazin-1-yl)-3-fluorophenyl)amino)-3-((R)-3-(3-methyl-2-oxoimidazolidin-1-yl)piperidin-1-yl)-1,2,4-triazin-6-carboxamide]	–
< 1	1.78	CN1CCN([C@@H]2CCCN(c3nnc(C(N)=O)c(Nc4ccc(C5CCN(CC6CCN(c7ccc(N8CCC(=O)NC8=O)cc7)CC6)CC5)c(F)c4)n3)C2)C1=O [Compound 234, (R)-5-((4-(1-((1-(4-(2,4-dioxotetrahydropyrimidin-1(2H)-yl)phenyl)piperidin-4-yl)methyl)piperidin-4-yl)-3-fluorophenyl)amino)-3-(3-(3-methyl-2-oxoimidazolidin-1-yl)piperidin-1-yl)-1,2,4-triazin-6-carboxamide]	–

The next lines start with the molecule.

SMILES	DC50 [1] [nM]	IC50 [2] [nM]	IC50 [3] [nM]
CN1CCN([C@@H]2CCCN(c3ncc(C(N)=O)c(Nc4ccc(N5CCN(CC6CCN(c7ccc8c(c7)C(=O)N(C7CCC(=O)NC7=O)C8=O)C6)CC5)cc4)n3)C2)C1=O (stereo partly drawn) [Compound 115, 4-((4-(4-((1-(2-(2,6-dioxopiperidin-3-yl)-1,3-dioxoisoindolin-5-yl)pyrrolidin-3-yl)methyl)piperazin-1-yl)phenyl)amino)-2-((R)-3-(3-methyl-2-oxoimidazolin-1-yl)piperidin-1-yl)pyrimidin-5-carboxamide]	< 1	0.59	5.97
CN1CCN([C@@H]2CCCN(c3ncc(C(N)=O)c(Nc4ccc(C5CCN(CC6CCN(c7ccc8c(c7)C(=O)N(C7CCC(=O)NC7=O)C8=O)C6)CC5)cc4)n3)C2)C1=O (stereo partly drawn) [Compound 116, 4-((4-(1-((1-(2-(2,6-dioxopiperidin-3-yl)-1,3-dioxoisoindolin-5-yl)pyrrolidin-3-yl)methyl)piperidin-4-yl)phenyl)amino)-2-((R)-3-(3-methyl-2-oxoimidazolin-1-yl)piperidin-1-yl)pyrimidin-5-carboxamide]	< 1	0.11	1.34
CN1CCN([C@@H]2CCCN(c3nnc(C(N)=O)c(Nc4ccc(C5CCN(CC6(C)CCN(c7ccc8c(c7)C(=O)N(C7CCC(=O)NC7=O)C8=O)C6)CC5)cc4)n3)C2)C1=O (stereo partly drawn) [Compound 120, 5-((4-(1-((1-(2-(2,6-dioxopiperidin-3-yl)-1,3-dioxoisoindolin-5-yl)-3-methylpyrrolidin-3-yl)methyl)piperidin-4-yl)phenyl)amino)-3-((R)-3-(3-methyl-2-oxoimidazolin-1-yl)piperidin-1-yl)-1,2,4-triazin-6-carboxamide]	< 1	0.21	1.76
CN1CCN([C@@H]2CCCN(c3nnc(C(N)=O)c(Nc4ccc(N5CCN(CC6CCN(c7ccc(N8CCC(=O)NC8=O)c(F)c7F)CC6)CC5)c(F)c4)n3)C2)C1=O [Compound 185, (R)-5-((4-(4-((1-(4-(2,4-dioxotetrahydropyrimidin-1(2H)-yl)-2,3-difluorophenyl)piperidin-4-yl)methyl)piperazin-1-yl)-3-fluorophenyl)amino)-3-(3-(3-methyl-2-oxoimidazolidin-1-yl)piperidin-1-yl)-1,2,4-triazin-6-carboxamide]	< 1	1.36	–
Cc1cc(N2CCC(CN3CCN(c4ccc(Nc5nc(N6CCC[C@@H](N7CCN(C)C7=O)C6)nnc5C(N)=O)cc4F)CC3)CC2)ccc1NC1CCC(=O)NC1=O (stereo partly drawn) [Compound 207, 5-((4-(4-((1-(4-((2,6-dioxopiperidin-3-yl)amino)-3-methylphenyl)piperidin-4-yl)methyl)piperazin-1-yl)-3-fluorophenyl)amino)-3-((R)-3-(3-methyl-2-oxoimidazolidin-1-yl)piperidin-1-yl)-1,2,4-triazin-6-carboxamide]	< 1	0.23	–
CN1CCN([C@@H]2CCCN(c3nnc(C(N)=O)c(Nc4ccc(N5CCN(CC#Cc6ccc(C(=O)NC7CCC(=O)NC7=O)nc6)CC5)c(F)c4)n3)C2)C1=O (stereo partly drawn) [Compound 224, 5-((4-(4-(3-(6-((2,6-dioxopiperidin-3-yl)carbamoyl)pyridin-3-yl)propan-2-yn-1-yl)piperazin-1-yl)-3-fluorophenyl)amino)-3-((R)-3-(3-methyl-2-oxoimidazolidin-1-yl)piperidin-1-yl)-1,2,4-triazin-6-carboxamide]	< 1	2.25	–
CN1CCN([C@@H]2CCCN(c3nnc(C(N)=O)c(Nc4ccc(N5CCN(CC#Cc6ccc7c(c6)n(C)c(=O)n7C6CCC(=O)NC6=O)CC5)c(F)c4)n3)C2)C1=O (stereo partly drawn) [Compound 227, 5-((4-(4-(3-(1-(2,6-dioxopiperidin-3-yl)-3-methyl-2-oxo-2,3-dihydro-1H-benzo[d]imidazol-5-yl)propan-2-yn-1-yl)piperazin-1-yl)-3-fluorophenyl)amino)-3-((R)-3-(3-methyl-2-oxoimidazolidin-1-yl)piperidin-1-yl)-1,2,4-triazin-6-carboxamide]	< 1	0.27	–
Cc1cc(N2CCC(CN3CCC(c4ccc(Nc5nc(N6CCC[C@@H](N7CCN(C)C7=O)C6)nnc5C(N)=O)cc4)CC3)CC2)ccc1N1CCC(=O)NC1=O [Compound 236, (R)-5-((4-(1-((1-(4-(2,4-dioxotetrahydropyrimidin-1(2H)-yl)-3-methylphenyl)piperidin-4-yl)methyl)piperidin-4-yl)phenyl)amino)-3-(3-(3-methyl-2-oxoimidazolidin-1-yl)piperidin-1-yl)-1,2,4-triazin-6-carboxamide]	< 1	0.63	–
